Legend:
Assay in all cases: UV-vis difference titration (type I shift, […] nm)
Type in all cases: binding
TxtE [1] = molecular target: T1, TxtE (Streptomyces scabiei, UniProt C9ZDC6, N293L)
T1 construct: full length, 406 residues, pET-28a, N-terminal His-tag with thrombin site (tag kept), E. coli Rosetta(DE3) pLysS, monomer in solution

TxtE [2] = molecular target: T2, TxtE (Streptomyces scabiei, UniProt C9ZDC6, Y89F)
T2 construct: full length, 406 residues, pET-28a, N-terminal His-tag with thrombin site (tag kept), E. coli Rosetta(DE3) pLysS, monomer in solution
T2 sequence (C9ZDC6 whole entry Y89F): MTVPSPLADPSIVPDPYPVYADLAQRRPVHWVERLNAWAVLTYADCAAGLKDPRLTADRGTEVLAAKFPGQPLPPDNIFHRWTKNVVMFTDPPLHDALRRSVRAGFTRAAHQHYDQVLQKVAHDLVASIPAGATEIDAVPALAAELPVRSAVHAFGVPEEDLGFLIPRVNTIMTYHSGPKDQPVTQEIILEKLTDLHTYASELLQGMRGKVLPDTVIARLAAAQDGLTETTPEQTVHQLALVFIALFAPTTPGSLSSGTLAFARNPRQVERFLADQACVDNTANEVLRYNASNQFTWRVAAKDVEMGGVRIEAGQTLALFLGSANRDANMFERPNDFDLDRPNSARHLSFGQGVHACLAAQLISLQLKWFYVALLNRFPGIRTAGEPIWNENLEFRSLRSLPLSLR

TxtE [3] = molecular target: T3, TxtE (Streptomyces scabiei, UniProt C9ZDC6)
T3 construct: full length, 406 residues, pET-28a, N-terminal His-tag with thrombin site (tag kept), E. coli Rosetta(DE3) pLysS, monomer in solution
T3 sequence (C9ZDC6 entry or part of it): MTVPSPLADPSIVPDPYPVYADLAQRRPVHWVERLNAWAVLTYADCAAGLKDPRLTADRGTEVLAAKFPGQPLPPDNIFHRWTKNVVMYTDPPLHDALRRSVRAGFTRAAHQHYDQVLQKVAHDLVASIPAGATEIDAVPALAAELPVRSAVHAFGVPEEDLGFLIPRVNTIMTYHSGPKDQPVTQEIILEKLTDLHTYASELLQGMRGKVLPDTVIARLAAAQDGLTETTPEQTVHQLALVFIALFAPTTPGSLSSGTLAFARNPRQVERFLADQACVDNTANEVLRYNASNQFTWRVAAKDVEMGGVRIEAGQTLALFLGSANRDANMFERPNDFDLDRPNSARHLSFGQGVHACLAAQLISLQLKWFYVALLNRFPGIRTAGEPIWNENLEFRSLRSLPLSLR

T1 sequence (C9ZDC6 whole entry N293L): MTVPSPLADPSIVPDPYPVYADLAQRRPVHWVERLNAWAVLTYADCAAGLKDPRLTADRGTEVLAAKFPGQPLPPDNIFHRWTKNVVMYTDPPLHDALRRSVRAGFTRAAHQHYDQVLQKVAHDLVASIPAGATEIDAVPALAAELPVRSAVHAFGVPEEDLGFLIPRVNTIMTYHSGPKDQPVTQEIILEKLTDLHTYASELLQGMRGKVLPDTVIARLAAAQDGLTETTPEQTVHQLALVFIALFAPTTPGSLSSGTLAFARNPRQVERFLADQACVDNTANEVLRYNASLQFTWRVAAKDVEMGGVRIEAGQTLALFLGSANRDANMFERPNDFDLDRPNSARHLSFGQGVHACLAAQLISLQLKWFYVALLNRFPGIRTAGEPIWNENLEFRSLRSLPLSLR

In the case of `N[C@@H](Cc1c[nH]c2ccccc12)C(=O)O` [L-tryptophan], the Kd (TxtE [1]) is reported as 1700 ± 280 µM, the Kd (TxtE [2]) is reported as 121 ± 4.3 µM and the Kd (TxtE [3]) is reported as 43.6 ± 2.26 µM.
